According to patent US10676458B2, “Antidiabetic bicyclic compounds” (Merck Sharp & Dohme Corp., priority 2016, dated 2020):

biological target: human GPR40 (Homo sapiens (Human), UniProt O14842); test: Inositol Phosphate Turnover (IP1) Assay; assay type: cell-based; conditions: HEK cells stably expressing human GPR40; 60 min incubation; CisBio IP-One kit
Procedure: Human GPR40 stable cell-lines were generated in HEK cells. The expression plasmids were transfected using lipofectamine (Life Technologies) following manufacturer's instructions. Stable cell-lines were generated following drug selection and single cell cloning.
The assay was performed in 384-well format. HEK cells stably expressing human GPR40 were plated at 7500 cells per well in growth medium (DMEM/10% fetal calf serum). Cell plates were then incubated 16 hours at 37 degrees in a 5% CO2 incubator. Measurement of Inositol Phosphate Turnover (IP1) was performed using the CisBio IP-One kit (Part number 62IPAPEB). After the 16 hour incubation, the growth media was removed by centrifugation using the BlueWasher (AusWasher GUI Ver. v1.0.1.8) Protocol #21-“Light Dry” and 10 ul of stimulation buffer (prepared as described in the kit) was added to each well. In a separate plate, compounds were diluted in DMSO (200-fold over the final concentration in the assay well) and 50 nl was acoustically transferred to the appropriate well in the assay cell plate. The plates were then incubated for 60 minutes at 37 degrees in a 5% CO2 incubator. 10 ul of detection buffer (also prepared as described in the IP-One kit) was added to each well and the plates were incubated at room temperature for 60 minutes in the dark. The plates were then read in a Perkin Elmer EnVision or equivalent reader able to measure FRET. Fluorescent ratio of emission at 665 and 620 nm was then converted to IP1 concentration by back calculating from an IP1 standard curve prepared at the time of the assay. Data was normalized to % activity using a reference compound and EC50s determined using a standard 4-paramter fit.

Sequence of human GPR40 (O14842 whole entry): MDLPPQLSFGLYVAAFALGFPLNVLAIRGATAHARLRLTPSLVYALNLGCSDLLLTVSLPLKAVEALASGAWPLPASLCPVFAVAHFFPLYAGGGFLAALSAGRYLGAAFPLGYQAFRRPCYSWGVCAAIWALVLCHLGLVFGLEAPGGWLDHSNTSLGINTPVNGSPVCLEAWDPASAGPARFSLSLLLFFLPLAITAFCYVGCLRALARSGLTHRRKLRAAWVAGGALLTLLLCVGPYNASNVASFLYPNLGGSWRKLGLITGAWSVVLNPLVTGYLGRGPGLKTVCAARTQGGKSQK

| EC50 [µM] | SMILES |
| --- | --- |
| 0.388 | C[C@H](C(=O)O)[C@H](c1ccc2c(c1)NC(C1CCN(Cc3cc(C(F)(F)F)ccc3C(F)(F)F)CC1)CO2)C1CC1 (single isomer, unassigned) [Example 2, Sodium (2S,3S)-3-((R or S)-3-(1-(2,5-Bis(trifluoromethyl)-benzyl)piperidin-4-yl)-3,4-dihydro-2H-benzo[b][1,4]oxazin-6-yl)-3-cyclopropyl-2-methyl propanoate] |
| 0.289 | C[C@H](C(=O)O)[C@H](c1ccc2c(c1)N(C)C(C1CCN(Cc3cc(C(F)(F)F)ccc3C(F)(F)F)CC1)CC2)C1CC1 (single isomer, unassigned) [Example 9, (2S,3R)-3-((S or R)-2-(1-(2,5-bis(trifluoromethyl)-benzyl)piperidin-4-yl)-1-methyl-1,2,3,4-tetrahydroquinolin-7-yl)-3-cyclopropyl-2-methyl propanoic acid] |
| 4.7 | C[C@H](C(=O)O)C(c1ccc2c(c1)N(C)C(C1CCN(Cc3cc(C(F)(F)F)ccc3C(F)(F)F)CC1)CO2)C1CC1 (single isomer, unassigned) [Example 4, Sodium (2S,3S)-3-((R or S)-3-(1-(2,5-bis(trifluoromethyl)benzyl)piperidin-4-yl)-4-methyl-3,4-di-hydro-2H-benzo[b][1,4]oxazin-6-yl)-3-cyclopropyl-2-methylpropanoate] |
| 0.035 | C[C@H](C(=O)O)[C@H](c1ccc2c(c1)NC(C1CCN(Cc3cc(C(F)(F)F)ccc3C(F)(F)F)CC1)CC2)C1CC1 (single isomer, unassigned) [Example 6, Sodium (2S,3R)-3-((R or S)-2-(1-(2,5-bis(trifluoromethyl)benzyl)piperidin-4-yl)-1,2,3,4-tetrahydroquinolin-7-yl)-3-cyclopropyl-2-methylpropanoate] |
| 0.012 | COc1ccc(F)c(-c2ccc(C3COc4ccc([C@H](C5CC5)[C@H](C)C(=O)O)cc4N3C)cc2)c1 (single isomer, unassigned) [Example 21, Sodium (2S,3R)-3-cyclopropyl-3-((S or R)-3-(2′-fluoro-5′-methoxy-[1,1′-biphenyl]-4-yl)-4-methyl-3,4-dihydro-2H-benzo[b][1,4]oxazin-6-yl)-2-methyl propanoate] |
| 0.012 | COc1ccc(F)c(-c2ccc(C3CCc4ccc([C@H](C5CC5)[C@H](C)C(=O)O)cc4N3C)cc2)c1 (single isomer, unassigned) [Example 15, (2S,3R)-3-cyclopropyl-3-((S or R)-2-(2′-fluoro-5′-methoxy-[1,1′-biphenyl]-4-yl)-1-methyl-1,2,3,4-tetrahydroquinolin-7-yl)-2-methylpropanoic acid] |
| 0.01 | COc1ccc(F)c(-c2ccc(C3COc4ccc([C@H](C5CC5)[C@H](C)C(=O)O)cc4N3)cc2)c1 (single isomer, unassigned) [Example 17, Sodium (2S,3R)-3-cyclopropyl-3-((R or S)-3-(2′-fluoro-5′-methoxy-[1,1′-biphenyl]-4-yl)-3,4-dihydro-2H-benzo[b][1,4]oxazin-6-yl)-2-methyl propanoate] |
| 0.611 | C[C@H](C(=O)O)[C@H](c1ccc2c(c1)CN(C1CCN(Cc3cc(C(F)(F)F)ccc3C(F)(F)F)CC1)CC2)C1CC1 [Example 1, (2S,3R)-3-(2-(1-(2,5-bis(Trifluoromethyl)benzyl)piperidin-4-yl)-1,2,34-tetrahydroisoquinolin-7-yl)-3-cyclopropyl-2-methylpropanoic acid] |
| 0.642 | C[C@H](C(=O)O)[C@H](c1ccc2c(c1)NC(C1CCN(Cc3cc(C(F)(F)F)ccc3C(F)(F)F)CC1)CO2)C1CC1 (single isomer, unassigned) [Example 3, Sodium (2S,3R)-methyl 3-((S or R)-3-(1-(2,5-bis(trifluoro-methyl)-benzyl)-piperidin-4-yl)-3,4-dihydro-2H-benzo[b]-[1,4]oxazin-6-yl)-3-cyclopropyl-2-methylpropanoate] |
| 0.0008 | COc1ccc(F)c(-c2ccc(C3COc4ccc([C@H](C5CC5)[C@H](C)C(=O)O)cc4N3C)cc2)c1 (single isomer, unassigned) [Example 20, Sodium (2S,3R)-3-cyclopropyl-3-((R or S)-3-(2′-fluoro-5′-methoxy-[1,1′-biphenyl]-4-yl)-4-methyl-3,4-dihydro-2H benzo-[b][1,4]oxazin-6-yl)-2-methyl propanoate] |
| 0.00079 | COc1ccc(F)c(-c2ccc(C3CCc4ccc([C@H](C5CC5)[C@H](C)C(=O)O)cc4N3)cc2)c1 (single isomer, unassigned) [Example 11, Sodium (2S,3R)-3-cyclopropyl-3-((R or S)-2-(2′-fluoro-5′-methoxy-[1,1′-biphenyl]-4-yl)-1,2,3,4-tetrahydroquinolin-7-yl)-2-methylpropanoate] |
| 0.0002 | COc1ccc(F)c(-c2ccc(C3CCc4ccc([C@H](C5CC5)[C@H](C)C(=O)O)cc4N3)cc2)c1 (single isomer, unassigned) [Example 12, (2S,3R)-3-cyclopropyl-3-((S or R)-2-(2′-fluoro-5′-methoxy-[1,1′-biphenyl]-4-yl)-1,2,3,4-tetrahydroquinolin-7-yl)-2-methylpropanoic acid] |
| 0.0008 | COc1ccc(F)c(-c2ccc(C3COc4ccc([C@H](C5CC5)[C@H](C)C(=O)O)cc4N3)cc2)c1 (single isomer, unassigned) [Example 18, Sodium (2S,3R)-3-cyclopropyl-3-((S or R)-3-(2′-fluoro-5′-methoxy-[1,1′-biphenyl]-4-yl)-3,4-dihydro-2H-benzo[b][1,4]oxazin-6-yl)-2-methyl propanoate] |
| 0.099 | C[C@H](C(=O)O)[C@H](c1ccc2c(c1)NC(C1CCN(Cc3cc(C(F)(F)F)ccc3C(F)(F)F)CC1)CC2)C1CC1 (single isomer, unassigned) [Example 7, Sodium (2S,3R)-3-((S or R)-2-(1-(2,5-bis(tri-fluoromethyl)-benzyl)-piperidin-4-yl)-1,2,3,4-tetrahydroquin-olin-7-yl)-3-cyclo-propyl-2-methyl propanoate] |
| 0.439 | C[C@H](C(=O)O)[C@H](c1ccc2c(c1)N(C)C(C1CCN(Cc3cc(C(F)(F)F)ccc3C(F)(F)F)CC1)CC2)C1CC1 (single isomer, unassigned) [Example 8, (2S,3R)-3-((R or S)-2-(1-(2,5-bis(trifluoromethyl)benzyl)piperidin-4-yl)-1-methyl-1,2,3,4-tetrahydroquinolin-7-yl)-3-cyclopropyl-2-methylpropanoic acid] |
| 2.1 | C[C@H](C(=O)O)[C@H](c1ccc2c(c1)N(C)C(C1CCN(Cc3cc(C(F)(F)F)ccc3C(F)(F)F)CC1)CO2)C1CC1 (single isomer, unassigned) [Example 5, Sodium (2S,3S)-3-((S or R)-3-(1-(2,5-bis(trifluoro-methyl)-benzyl)piperidin-4-yl)-4-methyl-3,4-dihydro-2H-benzo[b]-[1,4]oxazin-6-yl)-3-cyclopropyl-2-methyl propanoate] |
| 0.001 | COc1ccc(F)c(-c2ccc(C3CCc4ccc([C@H](C5CC5)[C@H](C)C(=O)O)cc4N3C)cc2)c1 (single isomer, unassigned) [Example 14, (2S,3R)-3-cyclopropyl-3-((R or S)-2-(2′-fluoro-5′-methoxy-[1,1′-biphenyl]-4-yl)-1-methyl-1,2,3,4-tetrahydroquinolin-7-yl)-2-methylpropanoic acid] |
